The values below are quoted from earlier work in patent US10481151B2, “Isolation of pulmonary arterial endothelial cells from patients with pulmonary vascular disease and uses thereof” (Allegheny-Singer Research Institute, priority 2012, dated 2019).

For this series the following is noted: short half life, so the drug must be administered intravenously over a prolonged time frame.
For `CCCCC[C@H](O)/C=C/[C@@H]1[C@H]2C/C(=C/CCCC(=O)O)O[C@H]2C[C@H]1O` [epoprostenol], the half life entry was “about 6 minutes”.

Consider `CC#CCC(C)[C@H](O)/C=C/[C@@H]1[C@H]2C/C(=C/CCCC(=O)O)C[C@H]2C[C@H]1O` (stereo partly drawn) [iloprost], for which the half life result is recorded as “about 6 minutes”. With `CCCCC[C@H](O)CC[C@@H]1[C@H]2Cc3cccc(OCC(=O)O)c3C[C@H]2C[C@H]1O` [treprostinil], the half life result is recorded as “about 6 minutes”.
